Laboratory results from patent US20110190336A1, “AZABENZIMIDAZOLONES” (CARA THERAPEUTICS, INC., priority 2008, published 2011).

Assays:
[1] = target: T1, human DP2 receptor (Homo sapiens, UniProt Q9Y5Y4); assay: Measurement of inhibition of intracellular cAMP induction (LANCE cAMP TR-FRET); assay type: cell-based; settings: human DP2 cells
T1 construct: expressed in transfected cells; host or cells: CHO-K1 FLP-In (Invitrogen, catalog no. R758-07), stably transfected
T1 sequence (Q9Y5Y4 1-395): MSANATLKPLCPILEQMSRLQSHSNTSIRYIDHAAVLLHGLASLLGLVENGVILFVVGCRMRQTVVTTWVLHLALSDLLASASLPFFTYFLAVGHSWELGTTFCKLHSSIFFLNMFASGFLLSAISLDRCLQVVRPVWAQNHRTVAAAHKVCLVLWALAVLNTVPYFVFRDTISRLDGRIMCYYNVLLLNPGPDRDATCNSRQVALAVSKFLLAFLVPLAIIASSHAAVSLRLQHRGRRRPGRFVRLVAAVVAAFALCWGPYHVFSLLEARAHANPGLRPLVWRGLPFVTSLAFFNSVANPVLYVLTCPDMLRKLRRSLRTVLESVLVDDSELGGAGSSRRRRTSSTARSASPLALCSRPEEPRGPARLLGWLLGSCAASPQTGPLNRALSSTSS
Method: The ability of compounds to act as antagonists or agonists at the human DP2 receptor was determined by measuring changes in intracellular cAMP levels using a LANCE cAMP detection kit (PerkinElmer, catalog no. AD0264) utilizing time-resolved fluorescence resonance energy transfer (TR-FRET).
Human DP2 cells were grown as described above. Cells were diluted to 2×10^5 cells/mL, and pre-incubated with 0.5 mM […] or IBMX (Sigma, catalog no. I7018). Antibody was added to all the cells as per the manufacturer's instructions. For antagonist experiments, cells were then pre-stimulated for 15 minutes with 4 μM of the water soluble forskolin derivative NKH-477 (Tocris, catalog no. 1603) to increase intracellular cAMP levels. An aliquot of cells was removed for use in uninduced controls. […] After a three hour equilibration, plates were read on an Envision multi-mode detector (PerkinElmer). TR-FRET was measured using a 330-380 nm excitation filter, 615 and 665 nm emission filters, and a 380 nm dichroic mirror set at a Z-height of 11 mm.
The cAMP concentration in each well was back-calculated from a cAMP standard curve run concurrently with each assay. Cyclic AMP responses were expressed as a percent of the difference between the maximum and minimum responses, determined from the induced and uninduced controls, respectively. […]

[2] = target: T1, human DP2 receptor; assay: Prostaglandin D2 binding inhibition assay (scintillation proximity assay, 3H PGD2, membranes of transfected CHO cells); settings: SPA, 5.5 nM 3H PGD2, CHO-K1 FLP-In human DP2 membranes; upper limit determinable 30 μM; read-out: IC50 ranges for inhibition of PGD2 binding to human DP2
Procedure, shortened: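 Membranes (5 μg) from CHO-K1 cells stably expressing human DP2 were mixed with WGA SPA beads and 5.5 nM 3H PGD2 in Tris buffer with 10 mM MgCl2, 100 mM NaCl, 0.1% BSA, plus compound. After 60 min at room temperature, CPM were read; IC50 from two-parameter nonlinear regression.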

Row | Compound | EC50 ([1]; 4 μM NKH-477 pre-stimulation, 30 nM PGD2, read-out: EC50, antagonism of intracellular cAMP induction) [µM] | mode of action at human DP2 (antagonist or agonist) ([1]; intracellular cAMP) | IC50 [2] [µM]
1 | CS(=O)(=O)c1ccccc1S(=O)(=O)N1CCC(n2c(=O)n(CC(=O)O)c3cccnc32)CC1 [Compound 63, 2-(3-(1-(2-(methylsulfonyl)phenyl-sulfonyl)piperidin-4-yl)-2-oxo-2,3-dihydro-1H-imidazo[4,5-b]pyridin-1-yl)acetic acid] | < 1 | antagonist | < 1
2 | O=C(O)Cn1c(=O)n(C2CCN(S(=O)(=O)c3ccccc3Cl)CC2)c2ccncc21 [Compound 141, 2-(1-(1-(2-chlorophenylsulfonyl)piperidin-4-yl)-2-oxo-1H-imidazo[4,5-c]pyridin-3(2H)-yl)acetic acid] |  |  | > 30
3 | Cc1cc(F)ccc1S(=O)(=O)N1CCC(n2c(=O)n(CC(=O)O)c3cnccc32)CC1 [Compound 144, 2-(1-(1-(4-fluoro-2-methylphenylsulfonyl)piperidin-4-yl)-2-oxo-1H-imidazo[4,5-c]pyridin-3(2H)-yl)acetic acid] |  |  | > 30
4 | O=C(O)Cn1c(=O)n(C2CCN(S(=O)(=O)c3ccc(F)cc3Cl)CC2)c2cnccc21 [Compound 150, 2-(3-(1-(2-chloro-4-fluorophenylsulfonyl)piperidin-4-yl)-2-oxo-2,3-dihydro-1H-imidazo[4,5-c]pyridin-1-yl)acetic acid] |  |  | > 30

Results, then the molecule that gave them:

Row | EC50 ([1]; 4 μM NKH-477 pre-stimulation, 30 nM PGD2, read-out: EC50, antagonism of intracellular cAMP induction) [µM] | mode of action at human DP2 (antagonist or agonist) ([1]; intracellular cAMP) | IC50 [2] [µM] | Compound
5 |  |  | > 30 | O=C(O)Cn1c(=O)n(C2CCN(S(=O)(=O)c3ccccc3Cl)CC2)c2cccnc21 [Compound 133, 2-(1-(1-(2-chlorophenylsulfonyl)piperidin-4-yl)-2-oxo-1H-imidazo[4,5-b]pyridin-3(2H)-yl)acetic acid]
6 |  |  | > 30 | O=C(O)Cn1c(=O)n(C2CCN(S(=O)(=O)c3ccc(Cl)cc3Cl)CC2)c2cccnc21 [Compound 134, 2-(1-(1-(2,4-dichlorophenylsulfonyl)piperidin-4-yl)-2-oxo-1H-imidazo[4,5-b]pyridin-3(2H)-yl)acetic acid]
7 |  |  | > 30 | CS(=O)(=O)c1ccccc1S(=O)(=O)N1CCC(n2c(=O)n(CC(=O)O)c3ncccc32)CC1 [Compound 135, 2-(1-(1-(2-(methylsulfonyl)phenyl-sulfonyl)piperidin-4-yl)-2-oxo-1H-imidazo[4,5-b]pyridin-3(2H)-yl)acetic acid]
8 |  |  | > 30 | O=C(O)Cn1c(=O)n(C2CCN(S(=O)(=O)c3ccc(F)cc3Cl)CC2)c2ccncc21 [Compound 140, 2-(1-(1-(2-chloro-4-fluorophenylsulfonyl)piperidin-4-yl)-2-oxo-1H-imidazo[4,5-c]pyridin-3(2H)-yl)acetic acid]
9 |  |  | > 30 | O=C(O)Cn1c(=O)n(C2CCN(S(=O)(=O)c3ccc(Cl)cc3Cl)CC2)c2ccncc21 [Compound 142, 2-(1-(1-(2,4-dichlorophenylsulfonyl)piperidin-4-yl)-2-oxo-1H-imidazo[4,5-c]pyridin-3(2H)-yl)acetic acid]
10 |  |  | > 30 | CS(=O)(=O)c1ccccc1S(=O)(=O)N1CCC(n2c(=O)n(CC(=O)O)c3cnccc32)CC1 [Compound 143, 2-(1-(1-(2-(methylsulfonyl)phenylsulfonyl)piperidin-4-yl)-2-oxo-1H-imidazo[4,5-c]pyridin-3(2H)-yl)acetic acid]
11 |  |  | 1 to 10 | CS(=O)(=O)c1ccccc1S(=O)(=O)N1CCC(n2c(=O)n(CC(=O)O)c3ccncc32)CC1 [Compound 149, 2-(3-(1-(2-(methylsulfonyl)phenylsulfonyl)piperidin-4-yl)-2-oxo-2,3-dihydro-1H-imidazo[4,5-c]pyridin-1-yl)acetic acid]
